From US20230014445A1, “ALLOSTERIC CHROMENONE INHIBITORS OF PHOSPHOINOSITIDE 3-KINASE (PI3K) FOR THE TREATMENT OF DISEASE” (Petra Pharma Corporation, priority 2021, published 2023)

Assays:
[1] = biological target: T1, human full length PIK3KA H1047R mutant (p110α/p85α complex) (Homo sapiens, UniProt P42336, H1047R); test: PI3K-Alpha Kinase (PIK3CA) biochemical activity, H1047R mutant (ADP-Glo); conditions: Soy PI lipid substrate, 20 uM ATP
T1 construct: Recombinant, catalytically active human full length PIK3KA Wild-type and H1047R mutant were purchased; 6xHis (N); purchased EMD Millipore Sigma 14-792M
Outline: (§1)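 ADP formation, measured by ADP-Glo luminescence after reaction to about 10% ATP conversion at 27° C., gives 10-point 4-parameter IC50 curves normalized to no-enzyme and DMSO controls. Lipid substrate was PIP2diC8 or Soy PI at 50 uM, with 20 uM ATP. WT or H1047R p110α/p85α complex (1-5 nM) was preincubated 1 h with compound.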

[2] = biological target: T2, human full length PIK3KA Wild-type (p110α/p85α complex) (Homo sapiens, UniProt P42336); test: PI3K-Alpha Kinase (PIK3CA) biochemical activity, wild-type (ADP-Glo); conditions: Soy PI lipid substrate, 20 uM ATP
T2 construct: Recombinant, catalytically active human full length PIK3KA Wild-type and H1047R mutant were purchased; 6xHis (N); purchased EMD Millipore Sigma 14-602M
Outline: as §1

[3] = biological target: PI3K-α (PIK3CA) in MDA-MB-453 cells (Homo sapiens, UniProt P42336); test: PI3K-Alpha Kinase (PIK3CA) activity in vitro cell based assay (AlphaLisa SureFire); conditions: 0% FBS, 3 hours treatment, read-out: PI3K-α (PIK3CA) in vitro cell based assay IC50
Outline: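 Serum-free MDA-MB-453 cells with 1 μg/mL insulin treated 3 h with a 10-point compound series in 0.3% DMSO; lysates analysed by AlphaLisa SureFire. Relative IC50 from 4-parameter fit of % inhibition versus DMSO (max) and 1 μM GDC-0032 (min) controls, duplicates.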

PI3K-α (PIK3CA) in MDA-MB-453 cells, sequence (P42336 whole entry): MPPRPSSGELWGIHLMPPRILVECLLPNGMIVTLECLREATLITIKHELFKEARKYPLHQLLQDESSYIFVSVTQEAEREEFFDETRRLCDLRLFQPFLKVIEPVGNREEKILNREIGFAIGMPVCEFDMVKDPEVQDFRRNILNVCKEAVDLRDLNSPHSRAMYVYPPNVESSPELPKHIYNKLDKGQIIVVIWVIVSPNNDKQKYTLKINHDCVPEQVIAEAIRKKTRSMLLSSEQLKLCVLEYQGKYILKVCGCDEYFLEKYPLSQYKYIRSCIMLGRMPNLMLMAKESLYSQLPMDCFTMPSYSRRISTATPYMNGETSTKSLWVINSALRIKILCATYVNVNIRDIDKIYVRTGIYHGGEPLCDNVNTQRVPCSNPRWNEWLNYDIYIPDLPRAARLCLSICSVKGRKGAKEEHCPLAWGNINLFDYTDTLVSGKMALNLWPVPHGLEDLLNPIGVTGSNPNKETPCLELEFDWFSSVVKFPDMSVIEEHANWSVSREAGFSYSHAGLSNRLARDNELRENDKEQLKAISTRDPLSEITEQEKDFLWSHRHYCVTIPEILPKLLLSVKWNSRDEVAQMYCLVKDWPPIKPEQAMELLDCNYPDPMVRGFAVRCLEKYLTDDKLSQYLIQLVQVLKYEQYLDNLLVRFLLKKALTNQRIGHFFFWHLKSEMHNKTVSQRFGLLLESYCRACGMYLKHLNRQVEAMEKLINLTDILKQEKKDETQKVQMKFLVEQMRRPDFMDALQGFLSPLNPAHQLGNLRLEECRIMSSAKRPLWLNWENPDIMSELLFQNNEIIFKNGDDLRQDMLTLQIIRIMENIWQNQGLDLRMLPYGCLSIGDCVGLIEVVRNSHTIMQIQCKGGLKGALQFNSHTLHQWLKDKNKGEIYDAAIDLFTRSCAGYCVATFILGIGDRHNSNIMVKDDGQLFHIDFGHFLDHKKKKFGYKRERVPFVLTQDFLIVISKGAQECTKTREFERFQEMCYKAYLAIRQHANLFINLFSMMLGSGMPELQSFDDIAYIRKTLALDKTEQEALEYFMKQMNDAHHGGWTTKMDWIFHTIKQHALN
PI3K-α (PIK3CA) in MDA-MB-453 cells, sequence (P27986 2-724, further chain): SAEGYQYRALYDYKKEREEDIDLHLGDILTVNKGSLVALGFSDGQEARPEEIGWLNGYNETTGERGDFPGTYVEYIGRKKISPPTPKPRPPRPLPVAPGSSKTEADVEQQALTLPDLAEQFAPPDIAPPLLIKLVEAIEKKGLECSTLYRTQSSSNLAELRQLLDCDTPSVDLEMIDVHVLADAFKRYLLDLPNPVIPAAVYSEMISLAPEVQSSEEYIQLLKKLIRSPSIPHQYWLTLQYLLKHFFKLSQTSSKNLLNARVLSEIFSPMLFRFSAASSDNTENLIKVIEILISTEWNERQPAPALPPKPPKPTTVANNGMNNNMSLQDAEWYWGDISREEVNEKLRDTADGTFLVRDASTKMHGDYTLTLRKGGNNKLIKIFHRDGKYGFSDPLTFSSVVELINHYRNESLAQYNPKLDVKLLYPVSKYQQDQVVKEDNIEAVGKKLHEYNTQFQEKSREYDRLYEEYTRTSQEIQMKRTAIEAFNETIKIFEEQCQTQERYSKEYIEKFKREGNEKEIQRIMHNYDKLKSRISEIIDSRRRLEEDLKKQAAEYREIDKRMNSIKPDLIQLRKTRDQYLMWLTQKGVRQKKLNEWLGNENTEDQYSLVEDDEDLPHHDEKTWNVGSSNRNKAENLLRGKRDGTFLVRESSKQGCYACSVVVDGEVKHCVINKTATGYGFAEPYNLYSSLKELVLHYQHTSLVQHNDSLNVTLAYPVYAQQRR
T1 sequence (P42336 whole entry H1047R): as the sequence (P42336 whole entry) above, with H1047R counted along it
T1 sequence (P27986 whole entry partner): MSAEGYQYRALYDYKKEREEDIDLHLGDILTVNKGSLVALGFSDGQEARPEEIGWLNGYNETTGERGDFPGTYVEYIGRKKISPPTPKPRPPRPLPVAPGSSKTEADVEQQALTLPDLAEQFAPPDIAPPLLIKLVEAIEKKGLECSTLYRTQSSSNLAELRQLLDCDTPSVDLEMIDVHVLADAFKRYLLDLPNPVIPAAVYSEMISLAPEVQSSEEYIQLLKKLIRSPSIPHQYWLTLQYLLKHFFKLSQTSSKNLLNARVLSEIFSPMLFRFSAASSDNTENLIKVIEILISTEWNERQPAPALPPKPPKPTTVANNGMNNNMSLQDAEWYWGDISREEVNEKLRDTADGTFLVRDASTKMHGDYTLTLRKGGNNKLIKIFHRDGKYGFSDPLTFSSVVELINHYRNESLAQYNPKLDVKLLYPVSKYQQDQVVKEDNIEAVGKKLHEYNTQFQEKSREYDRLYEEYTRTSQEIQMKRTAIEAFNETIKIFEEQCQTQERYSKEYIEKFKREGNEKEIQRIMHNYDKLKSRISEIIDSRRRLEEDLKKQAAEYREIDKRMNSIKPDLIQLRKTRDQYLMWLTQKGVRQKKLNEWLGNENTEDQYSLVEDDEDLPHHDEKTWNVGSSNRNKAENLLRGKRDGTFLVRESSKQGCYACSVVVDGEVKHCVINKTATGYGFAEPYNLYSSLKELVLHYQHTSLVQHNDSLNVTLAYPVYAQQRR

Structure (SMILES)	IC50 [1] [µM]	IC50 [2] [µM]	IC50 [3] [µM]
Cc1cc(C(C)Nc2ccccc2C(=O)O)c2oc(-c3cnc(OC(C)C)nc3)cc(=O)c2c1 (single isomer, unassigned; isomer 1) [Example 41, 2-[1-[2-(2-Isopropoxypyrimidin-5-yl)-6-methyl-4-oxo-chromen-8-yl]ethylamino]benzoic acid, Isomer 1]	> 10	> 10	> 0.5
Cc1cc(C(C)Nc2ccccc2C(=O)O)c2oc(-c3cncc(F)c3)c(C)c(=O)c2c1 (single isomer, unassigned; isomer 1) [Example 45, 2-[1-[2-(5-Fluoro-3-pyridyl)-3,6-dimethyl-4-oxo-chromen-8-yl]ethylamino]benzoic acid, Isomer 1]	< 0.5	0.5 to 1	< 0.05
Cc1cc(C(C)Nc2ccccc2C(=O)O)c2oc(-c3cnn(-c4cccnc4)c3)cc(=O)c2c1 (single isomer, unassigned; isomer 1) [Example 49, 2-[1-[6-Methyl-4-oxo-2-[1-(3-pyridyl)pyrazol-4-yl]chromen-8-yl]ethylamino]benzoic acid, Isomer 1]	> 10	> 10	> 0.5
Cc1cc(C(C)Nc2ccc(Cl)nc2C(=O)O)c2oc(-c3ccccn3)c(C)c(=O)c2c1 (single isomer, unassigned; isomer 1) [Example 60, 6-Chloro-3-[1-[3,6-dimethyl-4-oxo-2-(2-pyridyl)chromen-8-yl]ethylamino]pyridine-2-carboxylic acid, Isomer 1]	< 0.5	0.5 to 1	< 0.05
Cc1c(-c2ccccn2)oc2c(C(C)Nc3ccc(Cl)nc3C(=O)O)cc(C(F)(F)F)cc2c1=O (single isomer, unassigned; isomer 1) [Example 61, 6-Chloro-3-[1-[3-methyl-4-oxo-2-(2-pyridyl)-6-(trifluoromethyl)chromen-8-yl]ethylamino]pyridine-2-carboxylic acid, Isomer 1]	< 0.5	0.5 to 1	< 0.05
CC(Nc1ccccc1C(=O)O)c1cc(C(F)(F)F)cc2c(=O)cc(-c3ccccn3)oc12 (single isomer, unassigned; isomer 1) [Example 76, 2-[1-[4-Oxo-2-(2-pyridyl)-6-(trifluoromethyl)chromen-8-yl]ethylamino]benzoic acid, Isomer 1]	< 0.5	5 to 10	0.05 to 0.1
Cc1c(-c2cncc(F)c2)oc2c(C(C)Nc3ccc(Cl)nc3C(=O)O)cc(C(F)(F)F)cc2c1=O (single isomer, unassigned; isomer 1) [Example 97, 6-Chloro-3-[1-[2-(5-fluoro-3-pyridyl)-3-methyl-4-oxo-6-(trifluoromethyl)chromen-8-yl]ethylamino]pyridine-2-carboxylic acid, Isomer 1]	< 0.5	1 to 5	< 0.05
Cc1cc(C(C)Nc2cccc(F)c2C(=O)O)c2oc(-c3ccccn3)cc(=O)c2c1 (single isomer, unassigned; isomer 1) [Example 110, 2-Fluoro-6-[1-[6-methyl-4-oxo-2-(2-pyridyl)chromen-8-yl]ethylamino]benzoic acid, Isomer 1]	< 0.5	1 to 5	0.1 to 0.5
Cc1cc(C(C)Nc2cccc(F)c2C(=O)O)c2oc(-c3cnn(-c4ccc(C#N)cc4)c3)cc(=O)c2c1 (single isomer, unassigned; isomer 1) [Example 112, 2-[1-[2-[1-(4-Cyanophenyl)pyrazol-4-yl]-6-methyl-4-oxo-chromen-8-yl]ethylamino]-6-fluoro-benzoic acid, Isomer 1]	5 to 10	> 10	> 0.5
Cc1cc(C(C)Nc2ccc(F)c(F)c2C(=O)O)c2oc(-c3cnn(-c4ccc(C#N)cc4)c3)cc(=O)c2c1 (single isomer, unassigned; isomer 1) [Example 114, 6-[1-[2-[1-(4-Cyanophenyl)pyrazol-4-yl]-6-methyl-4-oxo-chromen-8-yl]ethylamino]-2,3-difluoro-benzoic acid, Isomer 1]	1 to 5	5 to 10	> 0.5
